# Test results as given in patent US20120172392A1, “AMINE-BASED AND AMIDE-BASED INHIBITORS OF SEMICARBAZIDE-SENSITIVE AMINE OXIDASE (SSAO) ENZYME ACTIVITY AND VAP-1 MEDIATED ADHESION USEFUL FOR TREATMENT OF DISEASES” (priority 2004, published 2012).
# Structures can show the parent of a compound that is named as a salt.
# How the values were obtained:
# SSAO = target: T1, SSAO (Rattus norvegicus, UniProt O08590); experiment: In vitro inhibition of SSAO activity, radiolabeled benzylamine procedure (rat lung homogenate); format: biochemical
# T1 construct: SSAO activity in 100 ul of lung homogenate was determined radiochemically; from tissue; host or cells: rat lung homogenate (1000 g supernatant)
# T1 sequence (O08590 1-763): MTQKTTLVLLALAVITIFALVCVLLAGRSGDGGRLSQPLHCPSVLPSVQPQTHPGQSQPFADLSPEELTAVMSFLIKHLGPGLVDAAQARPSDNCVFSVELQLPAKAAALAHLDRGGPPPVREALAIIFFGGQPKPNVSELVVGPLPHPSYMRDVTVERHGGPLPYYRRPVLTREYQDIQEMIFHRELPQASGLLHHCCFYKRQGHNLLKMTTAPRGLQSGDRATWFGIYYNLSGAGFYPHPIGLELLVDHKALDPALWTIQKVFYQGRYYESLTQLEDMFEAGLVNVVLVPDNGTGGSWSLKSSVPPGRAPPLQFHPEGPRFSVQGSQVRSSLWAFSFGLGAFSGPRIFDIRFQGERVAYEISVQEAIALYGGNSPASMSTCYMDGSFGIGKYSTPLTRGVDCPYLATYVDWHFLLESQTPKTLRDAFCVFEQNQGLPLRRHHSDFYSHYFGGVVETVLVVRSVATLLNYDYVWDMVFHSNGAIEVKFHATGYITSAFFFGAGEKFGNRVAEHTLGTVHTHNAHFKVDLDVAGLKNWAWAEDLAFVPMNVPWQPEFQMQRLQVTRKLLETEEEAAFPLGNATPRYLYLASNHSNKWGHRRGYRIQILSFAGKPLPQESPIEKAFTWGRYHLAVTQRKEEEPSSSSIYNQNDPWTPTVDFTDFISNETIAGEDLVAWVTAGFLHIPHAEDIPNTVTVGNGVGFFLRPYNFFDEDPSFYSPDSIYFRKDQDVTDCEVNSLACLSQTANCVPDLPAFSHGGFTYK
# Sprague Dawley rats = experiment: Carrageenan-induced rat paw edema; format: in vivo; settings: 30 mg/kg p.o. one hour before carrageenan; 1-6 h
# Experimental: Female Sprague Dawley rats were used and compounds of the invention were injected i.p. or dosed orally prior to carrageenan exposure. An equal volume of vehicle (PBS) was administered to the control group. Edema in the paws was induced as previously described by injecting 50 μl of a 0.5% solution of carrageenan (Type TV Lambda, Sigma) in saline with a 27-G needle s.c. in the right foot pat. (See Whiteley P. E. and Dalrymple S. A. (1998), Models of inflammation: carrageenan-induced paw edema in the rat, in Current Protocols in Pharmacology. Enna Si, Williams M, Ferkany J W, Kenaki T, Porsolt R E and Sullivan J P, eds., pp 5.4.1-5.4.3, John Wiley & Sons, New York) The size of the tested foot of each animal was measured volumetrically, before induction of edema, and at 1, 2, 3, 4, and 6 hours after carrageenan induction, to screen for compounds which inhibit the development of edema as compared to control animals.
# The results of an experiment where three compounds of Example 21, Table I (LJP 1379, LJP 1383, LJP 1406) were used are shown in FIG. 2A, FIG. 2B, and FIG. 2C. […] Paw volumes were recorded at the indicated times and expressed as percent of the volume before injection (100%). […] Paw volumes were recorded at the indicated times and expressed as percent of the volume before injection (100%). […]
smiles,measurement,setting,value
"NCC(=O)NCc1cc(F)cc(C(F)(F)F)c1 [LJP 1383, 2-amino-N-(3-fluoro-5-trifluoromethylbenzyl)acetamide trifluoroacetate]",reversibility of inhibition of SSAO enzyme activity,SSAO,irreversible
same,paw swelling (paw volume),Sprague Dawley rats,significantly reduced the paw swelling at all time points tested
